Measurements: US8933038B2, “Method of treating cancer with an HLA-A*3303-restricted WT1 peptide and pharmaceutical composition comprising the same” (International Institute of Cancer Immunology, Inc., priority 2006, dated 2015)
Ends that are not written are not given here.

Key:
[1] = tested on: B-LCL cells pulsed with the same WT1 peptide (BLCL-Ps)
Procedure: Peripheral blood mononuclear cells (PBMCs) were separated by Ficoll-Hypaque gradient density centrifugation method from peripheral blood that had been collected from an HLA-A*3303-positive healthy donor (HLA-A*3303/0207). The PBMCs were then seeded to a 24-well cell culture plate at the density of about 1×10^7 in RPMI 1640 medium containing 10% FCS, and a culture supernatant of B95-8 cells (cells producing EB virus) were added. They were cultured at 37° C. with 5% CO2 for about 1 month. B-LCL cells transformed with EB virus, which are B-cell tumor cells, were obtained. […] B-LCL cells were pulsed by incubating them with 20 μg/ml of WT1337, WT1364, WT1367 or WT1409 for 2 hours, and irradiated with 80 Gy of radiation. The resulting B-LCL cells (hereinafter referred to as B-LCL cells pulsed with a WT1 peptide) were used as antigen-presenting cells for the following experiments.
(§1) 3×10^6 of PBMCs (HLA-A*3303/1101) were cultured in a 24-well cell culture plate in complete medium (450 RPMI, 45% AMI-V medium and 10% human AB serum) containing 20 μg/ml of WT1337, WT1364, WT1367 or WT1409 at 37° C. with 5% CO2 for 1 week to obtain responding cells. 2×10^6 of the resulting responding cells were cocultured with 1×10^6 of the B-LCL cells pulsed with the same WT1 peptide in complete medium for 1 week (first stimulation). The PBMCs were cocultured with the B-LCL cells pulsed with the WT1 peptide three more times (second to fourth stimulations) under the conditions under which 20 IU/ml (final concentration) of IL-2 was added as follows: second stimulation: two times every other day from 3 days after the initiation of stimulation; third and fourth stimulations: three times at intervals of one day from the day after the initiation of stimulation. The resulting cells were concentrated using Negative Selection Columns Gravity Feed Kit (StemSp) so that the ratio of CD8-positive T cells became about 800, and cocultured with the B-LCL cells pulsed with the WT1 peptide (fifth stimulation). […]
(§2) The cytotoxic activity of CTLs was measured using ^51Cr release assay. […] The amounts of ^51Cr released into the supernatants were measured using a liquid scintillation counter. The cytotoxic activity (%) was determined using the following formula: (^51Cr release in supernatant of sample−Spontaneous ^51Cr release)/(Maximum ^51Cr release−Spontaneous ^51Cr release)×100 wherein Spontaneous ^51Cr release is ^51Cr release observed when the target cells into which ^51Cr had been incorporated were cultured alone under the same condition, and Maximum ^51Cr release is ^51Cr release observed when the target cells into which ^51Cr had been incorporated were completely lysed using 1% Triton X-100.

[2] = tested on: TF-1 cells
Procedure: as §1, §2
The cytotoxic activity of CTLs induced with WT1364, WT1367 or WT1409 against TF-1 cells that are tumor cells expressing a WT1 gene (HLA-A*3303-positive) was determined using the method as described above. […]

[3] = tested on: human peripheral blood mononuclear cells having HLA-A*0201; settings: human PBMCs having HLA-A*0201 stimulated with peptide; Non-patent Document 11; cited from earlier work
[4] = tested on: human cells; settings: in vitro, HLA-A*2402, Non-patent Document 12; cited from earlier work
[5] = tested on: B-LCL expressing WT1 (B-LCL-WT1)
Procedure: 3×10^6 of PBMCs (HLA-A*3303/1101) were cultured in a 24-well cell culture plate in complete medium (450 RPMI, 45% AMI-V medium and 10% human AB serum) containing 20 μg/ml of WT1337, WT1364, WT1367 or WT1409 at 37° C. with 5% CO2 for 1 week to obtain responding cells. 2×10^6 of the resulting responding cells were cocultured with 1×10^6 of the B-LCL cells pulsed with the same WT1 peptide in complete medium for 1 week (first stimulation). […]
as §2
The cytotoxic activity of CTLs induced with WT1367 against B-LCL cell expressing WT1 was determined using the method as described above. […]

Sequence | cytotoxic activity (specific lysis) of CTLs induced with the peptide [1] | cytotoxic activity (specific lysis) of CTLs induced with the peptide [2] | also measured
TSEKPFSCR [WT1409] | damage specifically BLCL-Ps | have a cytotoxic activity against the cell expressing a WT1 gene exogenously | –
LSHLQMHSR [WT1337] | damage specifically BLCL-Ps | – | –
SLGEQQYSV (listed as Homo sapiens) [WH187 peptide] | – | – | induction of WT1-specific CTLs [3]: WT1-specific CTLs are induced
CMTWNQMNL (listed as Homo sapiens) [WT1235] | – | – | induction of WT1-specific CTLs [4]: WT1-specific CTLs (TAK-1) are induced
FSRSDQLKR [WT1364] | damage specifically BLCL-Ps | have a cytotoxic activity against the cell expressing a WT1 gene exogenously | –
SDQLKRHQR [WT1367] | damage specifically BLCL-Ps | have a cytotoxic activity against the cell expressing a WT1 gene exogenously | cytotoxic activity (specific lysis) of CTLs induced with the peptide [5]: damage only the cell which is HLA-A*3303-positive and expresses WT1
